Assay results taken from US20260077000A1, “METABOLIC MODULATION OF INTRATUMORAL CHOLESTEROL WITH ENGINEERED BACTERIA FOR THE TREATMENT OF CANCERS” (Hong Kong Baptist University, priority 2024, published 2026).
pKd: −log10 of the molar value.

Target: recombinant extracellular domain of EGFR (EGFR-ECD) (Homo sapiens, UniProt P00533)
Assay: Microscale thermophoresis (MST), EGFR-ECD binding
Procedure: Recombinant human protein was labeled with a Monolith NT Protein Labeling Kit RED-NHS (Nanotemper, Munich, Germany) and diluted to 50 nM with HEPES buffer (10 mM HEPES, 150 mM NaCl, 0.05% Tween). […] Samples were incubated at room temperature for 5 minutes. The mixtures were centrifuged at 16,000×g for 5 minutes and loaded into capillaries. Microscale thermophoresis measurements were performed using a Monolith NT.115 (Nanotemper, Munich, Germany).

recombinant extracellular domain of EGFR (EGFR-ECD), sequence (P00533 25-645 limits assumed): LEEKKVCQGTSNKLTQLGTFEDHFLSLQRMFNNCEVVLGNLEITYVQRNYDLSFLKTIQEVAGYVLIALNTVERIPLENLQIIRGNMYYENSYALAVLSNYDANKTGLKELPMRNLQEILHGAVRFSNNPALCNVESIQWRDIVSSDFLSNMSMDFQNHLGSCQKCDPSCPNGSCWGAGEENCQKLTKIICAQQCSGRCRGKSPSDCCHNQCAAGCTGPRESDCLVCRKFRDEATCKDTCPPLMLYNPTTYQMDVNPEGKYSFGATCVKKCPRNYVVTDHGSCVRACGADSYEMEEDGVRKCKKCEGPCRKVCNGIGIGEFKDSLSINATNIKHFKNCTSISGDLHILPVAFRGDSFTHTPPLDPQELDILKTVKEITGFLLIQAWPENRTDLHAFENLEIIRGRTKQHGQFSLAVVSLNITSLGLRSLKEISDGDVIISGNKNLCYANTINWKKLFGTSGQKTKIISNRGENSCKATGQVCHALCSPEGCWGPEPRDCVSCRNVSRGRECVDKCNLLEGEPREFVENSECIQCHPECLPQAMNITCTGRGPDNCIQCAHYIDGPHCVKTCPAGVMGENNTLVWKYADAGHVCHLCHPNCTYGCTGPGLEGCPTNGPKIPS

CC(C)CCC[C@@H](C)[C@H]1CC[C@H]2[C@@H]3CCC4=CC(=O)CC[C@]4(C)[C@H]3CC[C@]12C [4-C-3, 4-cholesten-3-one]
pKd: 5.25
